The source of these data is US10239830B2, “Benzenesulfonamide upregulators of NPC1 for Neimann-Pick disease and other lysosomal storage disorders” (ICAHN SCHOOL OF MEDICINE AT MOUNT SINAI, priority 2015, dated 2019).

Molecules are shown by their SMILES.

The subject of experiment [1] is NPC1 promoter. In words: Confirmation Assay of NPC1 Promoter Activators: Renilla Luciferase (Huh7). Type of experiment: cell-based, human. The settings on record: for Emax: read-out: NPC1-renilla Eff. How it is done:
Confirmation Assay of NPC1 Promoter Activators: Renilla Luciferase. The confirmation assay was carried out using an assay in which the NPC1 promoter drives the expression of a different luciferase protein from the one used in the primary screen. The NPC1 promoter was cloned in front of the renilla luciferase reporter gene. NPC1 promoter activation results in renilla luciferase expression. This vector was used to generate Huh7 cell lines stably expressing the NPC1-renilla luciferase vector. These cells were propagated and maintained in medium containing RPMI-1640 supplemented with 10% FBS, 2 mM L-glutamine, and 50 μg/mL penicillin/streptomycin. Cells were plated for assays in OPTI-MEM I reduced-serum medium supplemented with 10% FBS at 1,500 cells/well in 5 μL in 1,536-well white opaque plates and then 23 nL/well of compound in DMSO solution were added through pin transfer. The assay plates were incubated at 37° C. for 24 hours. The Amplite luciferase reporter gene assay kit was purchased from ABD Bioquest and prepared/stored according to manufacturer's recommendations. Luminescence signal was measured in a ViewLux plate reader (Perkin Elmer) after a 10 minute incubation at room temperature.

Experiment [2] relates to NPC1 patient cell fibroblasts. The experiment in a line: Filipin Staining Assay to Detect Free Cholesterol Accumulation in NPC Cells. Type of experiment: cell-based, human. The note with it: filipin fluorescence relative to untreated cells; for activity at 1 µM: Homo sapiens, Fibroblast, read-out: % storage at 1 μM. How it is done:
Filipin Staining Assay to Detect Free Cholesterol Accumulation in NPC Cells. Compounds were evaluated for their effect on the NPC1 cellular phenotype by staining treated NPC1 patient cell fibroblasts with filipin, which recognizes free unesterified cholesterol. Compounds that upregulate the NPC1 promoter were expected to reduce the filipin staining in treated NPC1 fibroblasts compared to untreated NPC1 fibroblasts, indicating clearance of unesterified cholesterol. Conversely, inhibitors of the NPC1 promoter were expected to increase filipin staining in wild-type fibroblasts, thus indicating the emergence of an NPC-like phenotype. Briefly, cells were grown in lipoprotein-deficient medium for 3-4 days, and then the medium was replaced and supplemented with test compound plus 50 μg/mL low-density lipoprotein (LDL). After 24-48 hours, cells were stained with filipin and scored under the 40× magnification filter using the integrated morphometry function in the Metavue program (Molecular Devices). Test compounds that decreased the intensity of filipin fluorescence to less than 50% of untreated cells are considered of particular interest.

For experiment [3], the target named is NPC1 promoter. In words: qHTS of NPC1 Promoter-Luciferase Reporter Gene Assay (firefly, Huh7). Type of experiment: cell-based, human. The settings on record: 24 hours. As for the experimental part:
(§1) qHTS of NPC1 Promoter-Luciferase Reporter Gene Assay. For the second primary screen, a promoter assay was developed by engineering a vector using approximately 1.5 kb of the NPC1 promoter to drive the expression of the firefly luciferase reporter gene. Thus, NPC1 promoter activation results in luciferase expression. This vector was used to generate Huh7 cell lines stably expressing the NPC1-luciferase vector. […] Cells were plated for assays in OPTI-MEM I reduced-serum medium supplemented with 10% FBS at 1,500 cells/well in 5 μL in 1,536-well white opaque plates with 23 nL/well of test compound in DMSO solution. The assay plates were incubated at 37° C. for 24 hours, after which 3 μL/well BriteLite plus luciferase detection reagent mixture (Perkin Elmer) was added. Luminescence signal was measured in a ViewLux plate reader (Perkin Elmer) after a 10 minute incubation at room temperature.

A further experiment relates to Wild type (Wt) cells. In words: VTB-GL-3 assay, wild type cells. Type of experiment: cell-based, human. The note with it: Wt cells treated for 3 days.
A further experiment has as its system NPC3 cells. The experiment in a line: Lactosyl Ceramide (BODIPY-LacCer) staining to monitor sphingolipid transport. Type of experiment: cell-based, human. The note with it: for correction of lipid transport block (accumulation of Bodipy LacCer probe to the Golgi): compared to untreated NPC3 cells. As for the experimental part:
Lactosyl Ceramide staining to monitor sphingolipid transport in NPC cells. The effect of each compound on the sphingolipid transport defect seen in NPC1 fibroblasts was assessed in cells treated with compound for 48-72 hours using the fluorescent probe BODIPY-lactosylceramide (LacCer). […] This mislocalization can be corrected and Golgi localization restored by expression of Wt NPC1 protein or Rab9, thus providing a dynamic view of the endocytic transport pathway. Cells were incubated with 5 μM BODIPY-LacCer/BSA for 45 min at 37° C. in culture medium containing 1% FBS, washed, and further incubated for 1 h at 37° C. in medium containing 1% FBS. Fluorescent lipid present at the plasma membrane was removed by back-exchange with 5% fatty acid-free BSA. Cells were fixed with 3% paraformaldehyde for 20 min at RT and then visualized on a Nikon Eclipse microscope fitted with a charge-coupled-device camera. Images were acquired with MetaVue software and then deconvoluted using AutoDeblur software.
Unlike the VTB assay above that detects the static levels of lipid storage, the Bodipy LacCer probe allows for detection of the recovery/correction of lipid transport from the plasma membrane to the Golgi apparatus as described above. This dynamic assay can be used to determine the level of correction various compounds have on the NPC transport block.

The target of a further experiment is Rab9 promoter. In words: qHTS of Rab9 Promoter-Luciferase Reporter Gene Assay (firefly, Huh7). The format is cell-based, human. The note with it: 24 hours. How it is done: as §1, with “Rab9” for “NPC1”, “the” for “the second”, “Rab9-luciferase” for “NPC1-luciferase”
A general note: In qHTS, concentration-response curves come from the screen itself.

The target of the next experiment is T1, Renilla Enzyme (Renilla reniformis, UniProt P27652).
T1 sequence (P27652 1-311): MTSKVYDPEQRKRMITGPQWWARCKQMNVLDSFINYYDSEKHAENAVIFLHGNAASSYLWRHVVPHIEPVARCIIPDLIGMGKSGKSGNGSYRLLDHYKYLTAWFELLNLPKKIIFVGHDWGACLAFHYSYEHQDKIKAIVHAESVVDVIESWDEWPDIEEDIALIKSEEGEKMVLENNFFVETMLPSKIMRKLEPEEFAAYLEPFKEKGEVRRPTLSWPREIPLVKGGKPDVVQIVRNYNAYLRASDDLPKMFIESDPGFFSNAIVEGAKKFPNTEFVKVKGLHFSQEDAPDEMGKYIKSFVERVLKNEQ
The experiment in a line: Biochemical Renilla Luciferase Counter assay.

Experimental for Renilla Enzyme: Biochemical Renilla Luciferase Counter assay. An orthogonal assay was run to exclude any compounds that promoted renilla luciferase signal by stabilizing the renilla protein. Briefly, 3 μL of 0.01 mM D-Luciferin and 0.01 mM ATP was dispensed into a 1536 well white, solid bottom plate. Through pinning, 23 nL of compound was added; PTC124 (3-[5-(2-Fluorophenyl)-1,2,4-oxadiazol-3-yl]benzoic acid) served as the control. After a 10 min incubation at room temperature, 1 μL of Luciferase was added, after which the plate was immediately read on the ViewLux for a luminescent read-out.

`COc1ccc(NC(=O)c2cccnc2C)cc1S(=O)(=O)Nc1ccc(Br)cc1` [Example 49]: in the experiment with NPC1 promoter [1] (Homo sapiens, Huh-7, 24 hours), the response was half-maximal at 5.5 µM (EC50) and the Emax worked out at 395%. The activity at 1 µM in experiment [2] was 30%.
Take `COc1ccc(NC(=O)c2ccc[nH]2)cc1S(=O)(=O)Nc1ccc(Br)cc1` [Example 43]: in the experiment on NPC1 promoter [1] (Homo sapiens, Huh-7, 24 hours), the EC50 came out at 4.3 µM and the Emax was found to be 88%.
Regarding `COc1ccc(NC(=O)c2c(C)cccc2C)cc1S(=O)(=O)Nc1ccc(Br)cc1` [Example 46], in the experiment on NPC1 promoter [1] (Homo sapiens, Huh-7, 24 hours), the 50% effective concentration (EC50) turned out to be 1.1 µM and the Emax was 192%. For the same compound, in experiment [2], the activity at 1 µM was 46% and the “% storage at 0.1 μM” value turned out to be 26%.
Turning to `COc1ccc(NC(=O)c2cccnc2)cc1S(=O)(=O)Nc1ccc(Br)cc1` [Example 51], in the experiment with NPC1 promoter [1] (Homo sapiens, Huh-7, 24 hours), a half-maximal response (EC50) required 2.7 µM and the Emax amounted to 257%. Further, in experiment [2], the activity at 1 µM was found to be 29%.
Take `COc1ccc(NC(=O)c2c(C)c(C(C)=O)c(C)n2C)cc1S(=O)(=O)Nc1ccc(Br)cc1` [Example 44]: in the experiment with NPC1 promoter [1] (Homo sapiens, Huh-7, 24 hours), a half-maximal response (EC50) required 0.5 µM and the Emax was determined as 245%.
Take `COc1ccc(NC(=O)c2[nH]c(C)c(C(C)=O)c2C)cc1S(=O)(=O)Nc1ccc(Br)cc1` [Example 36]: at NPC1 promoter [3], the EC50 stood at 0.7 µM and the “NPC1 Eff.” value is given as 150%. For the same compound, in experiment [2], the “% storage at 0.1 μM” value is reported as 50% and the “% storage at 1 μM” value was determined as 25%. Further, in the experiment on Wild type (Wt) cells, the “effect on storage of lipid material (VTB staining) in Wt cells” value is listed as “no effect on Wt cells”. In addition, the “percent Golgi location” value in the experiment on NPC3 cells (10 or 100 nM) is given as “reduces percent Golgi location by a statistically significant amount”. In the experiment on NPC3 cells, the “correction of lipid transport block (accumulation of Bodipy LacCer probe to the Golgi)” value is reported as “correction of their block”.
With `COc1ccc(NC(=O)c2[nH]c(C)cc2C)cc1S(=O)(=O)Nc1ccc(Br)cc1` [Example 42], in the experiment on NPC1 promoter [1] (Homo sapiens, Huh-7, 24 hours), the EC50 was 2.7 µM and the Emax was found to be 119%. Moreover, in experiment [2], the activity at 1 µM is 47% and the “% storage at 0.1 μM” value is 49%.
Take `COc1ccc(NC(=O)c2ccccc2)cc1S(=O)(=O)Nc1ccc(Br)cc1` [Example 45]: in the experiment with NPC1 promoter [1] (Homo sapiens, Huh-7, 24 hours), the EC50 was 1.1 µM and the Emax is 223%. For the same compound, the activity at 1 µM in experiment [2] turned out to be 60%.
In the case of `CC(=O)c1c(C)[nH]c(C(=O)Nc2cccc(S(=O)(=O)N(C)C)c2)c1C` [Example 1], at NPC1 promoter [3], the EC50 lay in the range of 6.6 to 7.7 µM and the “NPC1 Eff.” value is 68-83%. Further, on Rab9 promoter, the EC50 worked out at 6.1 µM and the “Rab9 Eff.” value is recorded as 148%. Further, in experiment [2], the “% storage at 0.1 μM” value was determined as 40% and the “% storage at 1 μM” value amounted to 22%. Moreover, in the experiment with Wild type (Wt) cells, the “effect on storage of lipid material (VTB staining) in Wt cells” value is recorded as “no effect on Wt cells”. The “percent Golgi location” value in the experiment with NPC3 cells (1 μM) is “reduces percent Golgi location by a statistically significant amount”. Also, in the experiment with NPC3 cells, the “correction of lipid transport block (accumulation of Bodipy LacCer probe to the Golgi)” value is given as “correction of their block”.
Regarding `COc1ccc(NC(=O)C23CC4CC(CC(C4)C2)C3)cc1S(=O)(=O)Nc1ccc(Br)cc1` [Example 47], on NPC1 promoter [1] (24 hours), the EC50 worked out at 2.7 µM and the “NPC1-renilla Eff.” value is 80%. At Renilla Enzyme, the “Renilla Enzyme IC50” value is given as “Inactive”. Besides, the “% storage at 1 μM” value in experiment [2] worked out at 33%.

One may read the EC50 as the concentration giving half of the maximal effect. Lower therefore signals an effect from little substance.
